Data as given in ChEMBL document CHEMBL1201862, “PubChem BioAssay data set” (2004).
Activity calls are given as the source filed them.

Assays:
[1] = target: T1, Dual specificity protein phosphatase 6 (Rattus norvegicus, UniProt Q64346)
T1 sequence (Q64346 whole entry): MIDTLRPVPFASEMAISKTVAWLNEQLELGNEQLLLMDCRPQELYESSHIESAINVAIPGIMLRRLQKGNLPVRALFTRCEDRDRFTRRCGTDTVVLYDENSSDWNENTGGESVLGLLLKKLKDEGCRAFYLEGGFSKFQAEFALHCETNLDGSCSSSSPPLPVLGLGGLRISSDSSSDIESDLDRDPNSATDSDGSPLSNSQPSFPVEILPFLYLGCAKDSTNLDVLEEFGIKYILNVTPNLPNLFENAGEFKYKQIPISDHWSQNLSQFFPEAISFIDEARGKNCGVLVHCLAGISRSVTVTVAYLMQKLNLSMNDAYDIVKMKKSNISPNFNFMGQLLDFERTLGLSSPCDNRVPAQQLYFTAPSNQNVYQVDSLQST

[2] = target: T1, Dual specificity protein phosphatase 6; format: functional
[3] = target: Glyceraldehyde-3-phosphate dehydrogenase (Homo sapiens, UniProt P04406)
[4] = target: T2, Protein skinhead-1 (Caenorhabditis elegans, UniProt P34707); format: functional
T2 sequence (P34707 whole entry): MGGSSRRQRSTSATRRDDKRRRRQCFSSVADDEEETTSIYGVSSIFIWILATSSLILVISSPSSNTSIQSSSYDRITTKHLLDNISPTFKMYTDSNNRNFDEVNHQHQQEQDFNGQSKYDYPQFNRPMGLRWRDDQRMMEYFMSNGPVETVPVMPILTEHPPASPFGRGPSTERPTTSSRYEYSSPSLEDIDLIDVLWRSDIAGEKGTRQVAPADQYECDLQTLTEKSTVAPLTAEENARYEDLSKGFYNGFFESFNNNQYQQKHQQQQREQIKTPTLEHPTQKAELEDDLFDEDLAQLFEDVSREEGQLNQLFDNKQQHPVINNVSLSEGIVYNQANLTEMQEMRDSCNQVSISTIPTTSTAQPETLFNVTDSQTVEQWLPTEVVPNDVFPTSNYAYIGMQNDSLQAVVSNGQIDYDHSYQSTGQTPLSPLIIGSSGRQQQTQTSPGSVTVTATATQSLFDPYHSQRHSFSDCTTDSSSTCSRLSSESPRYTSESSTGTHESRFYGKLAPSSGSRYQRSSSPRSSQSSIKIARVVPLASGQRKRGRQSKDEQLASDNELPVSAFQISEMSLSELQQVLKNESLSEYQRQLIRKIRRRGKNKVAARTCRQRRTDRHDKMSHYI

[5] = target: Tyrosine-protein phosphatase non-receptor type 7 (Homo sapiens, UniProt P35236); format: functional
[6] = target: Peroxisome proliferator-activated receptor gamma/Nuclear receptor coactivator 2 (Homo sapiens, UniProt P37231); format: functional;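 further: agonist potency for raising coactivator recruitment to the receptor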
[7] = target: Peroxisome proliferator-activated receptor gamma/Nuclear receptor coactivator 1 (Homo sapiens, UniProt P37231); format: functional;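 further: agonist potency as compounds enhance coactivator SRC-1 recruitment to PPARgamma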
[8] = target: Peroxisome proliferator-activated receptor gamma/Nuclear receptor coactivator 3 (Homo sapiens, UniProt P37231); format: functional;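 further: agonist potency for raising coactivator recruitment to the receptor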
[9] = target: Estrogen receptor (Homo sapiens, UniProt P03372);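 further: potency for inhibiting coactivator peptide recruitment to the receptor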
[10] = target: T3, Protein RecA (Mycobacterium tuberculosis, UniProt P9WHJ3); experiment: Fluorescence Cell-Free Homogeneous Dose Retest to Identify Inhibitors of RecA-Intein Splicing Activity. [Related pubchem assays (depositor defined):AID2097, AID2223, AID489010, AID492950]; format: functional
T3 sequence (P9WHJ3 whole entry): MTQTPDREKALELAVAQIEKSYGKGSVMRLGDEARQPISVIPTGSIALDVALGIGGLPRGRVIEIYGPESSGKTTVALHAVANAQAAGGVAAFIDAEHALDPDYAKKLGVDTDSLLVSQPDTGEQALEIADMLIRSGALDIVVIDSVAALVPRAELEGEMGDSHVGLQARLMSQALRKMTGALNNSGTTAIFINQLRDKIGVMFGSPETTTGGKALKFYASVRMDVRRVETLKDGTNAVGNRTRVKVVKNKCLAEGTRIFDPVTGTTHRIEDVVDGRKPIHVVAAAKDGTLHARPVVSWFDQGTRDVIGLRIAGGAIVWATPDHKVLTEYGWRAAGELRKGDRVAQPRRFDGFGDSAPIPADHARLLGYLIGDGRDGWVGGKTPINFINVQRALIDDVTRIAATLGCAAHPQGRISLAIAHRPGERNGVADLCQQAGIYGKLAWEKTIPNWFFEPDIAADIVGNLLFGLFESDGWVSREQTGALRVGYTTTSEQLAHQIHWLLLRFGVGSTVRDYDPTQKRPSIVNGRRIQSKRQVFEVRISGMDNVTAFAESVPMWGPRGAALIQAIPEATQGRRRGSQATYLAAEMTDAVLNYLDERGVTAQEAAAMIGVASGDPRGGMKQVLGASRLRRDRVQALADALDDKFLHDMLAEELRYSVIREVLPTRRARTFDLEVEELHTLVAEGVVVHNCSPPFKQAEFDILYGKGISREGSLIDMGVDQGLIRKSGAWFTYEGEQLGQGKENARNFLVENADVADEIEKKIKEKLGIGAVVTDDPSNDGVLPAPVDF

[11] = target: Procathepsin L (Homo sapiens, UniProt P07711); experiment: cathepsin L inhibitors, dose response, counter-screen for M1/M17 aminopeptidase inhibitor project, biochemical, QFRET, 1536-well (AID 2214)
[12] = target: T4, Replicative DNA helicase DnaB (Mycobacterium tuberculosis, UniProt P9WMR3); experiment: DnaB intein splicing inhibitors, dose response, biochemical, cell-free fluorescence (AID 449749); format: functional
T4 sequence (P9WMR3 whole entry): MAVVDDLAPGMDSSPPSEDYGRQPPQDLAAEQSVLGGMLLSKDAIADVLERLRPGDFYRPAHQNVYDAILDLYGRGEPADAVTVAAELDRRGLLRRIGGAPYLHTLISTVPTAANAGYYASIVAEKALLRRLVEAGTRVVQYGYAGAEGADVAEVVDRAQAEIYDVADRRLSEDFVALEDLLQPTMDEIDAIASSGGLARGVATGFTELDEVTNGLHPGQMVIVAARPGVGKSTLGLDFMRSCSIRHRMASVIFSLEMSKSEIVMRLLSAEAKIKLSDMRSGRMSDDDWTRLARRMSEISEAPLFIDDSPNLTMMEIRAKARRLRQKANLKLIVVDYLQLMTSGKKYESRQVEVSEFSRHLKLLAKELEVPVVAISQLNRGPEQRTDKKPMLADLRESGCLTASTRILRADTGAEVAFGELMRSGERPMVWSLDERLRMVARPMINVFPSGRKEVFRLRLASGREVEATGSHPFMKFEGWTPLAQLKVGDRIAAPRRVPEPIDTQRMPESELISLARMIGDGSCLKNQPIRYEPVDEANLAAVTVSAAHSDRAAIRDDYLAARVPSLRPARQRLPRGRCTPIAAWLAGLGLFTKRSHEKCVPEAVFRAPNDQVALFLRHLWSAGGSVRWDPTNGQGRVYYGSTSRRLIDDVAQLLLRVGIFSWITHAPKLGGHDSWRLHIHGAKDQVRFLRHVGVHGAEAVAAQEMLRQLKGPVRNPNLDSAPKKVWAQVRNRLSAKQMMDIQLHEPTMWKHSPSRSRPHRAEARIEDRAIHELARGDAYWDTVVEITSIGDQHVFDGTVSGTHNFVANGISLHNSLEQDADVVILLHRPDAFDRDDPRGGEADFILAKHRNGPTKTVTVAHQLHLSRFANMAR

[13] = target: T5, Aspartyl aminopeptidase (Plasmodium falciparum 3D7, UniProt Q8I2J3); experiment: Counterscreen for inhibitors of M1 and M17 aminopeptidases: QFRET-based biochemical high throughput dose response assay for inhibitors of the Plasmodium falciparum M18 Aspartyl Aminopeptidase (PFM18AAP). [Related PubChem assays: 1619 (Screening assay (M17LAP inhibitors).), 1445 (Screening assay (M1AAP inhibitors).)]
T5 sequence (Q8I2J3 whole entry): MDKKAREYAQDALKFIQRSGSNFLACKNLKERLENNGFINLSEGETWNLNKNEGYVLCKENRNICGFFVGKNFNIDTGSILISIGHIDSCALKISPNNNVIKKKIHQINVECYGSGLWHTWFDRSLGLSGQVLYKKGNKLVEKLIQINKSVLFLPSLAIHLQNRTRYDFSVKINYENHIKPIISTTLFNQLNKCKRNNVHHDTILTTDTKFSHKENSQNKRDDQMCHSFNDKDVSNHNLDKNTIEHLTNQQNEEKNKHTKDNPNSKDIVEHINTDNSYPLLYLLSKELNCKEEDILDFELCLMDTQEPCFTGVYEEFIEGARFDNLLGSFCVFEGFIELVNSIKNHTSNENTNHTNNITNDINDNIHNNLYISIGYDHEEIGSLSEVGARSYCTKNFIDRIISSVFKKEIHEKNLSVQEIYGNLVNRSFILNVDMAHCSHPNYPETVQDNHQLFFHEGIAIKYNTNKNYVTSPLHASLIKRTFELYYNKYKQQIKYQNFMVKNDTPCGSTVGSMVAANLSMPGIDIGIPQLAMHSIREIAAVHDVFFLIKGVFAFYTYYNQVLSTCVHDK

[14] = target: T6, Sentrin-specific protease 8 (Homo sapiens, UniProt Q96LD8); format: functional
T6 sequence (Q96LD8 whole entry): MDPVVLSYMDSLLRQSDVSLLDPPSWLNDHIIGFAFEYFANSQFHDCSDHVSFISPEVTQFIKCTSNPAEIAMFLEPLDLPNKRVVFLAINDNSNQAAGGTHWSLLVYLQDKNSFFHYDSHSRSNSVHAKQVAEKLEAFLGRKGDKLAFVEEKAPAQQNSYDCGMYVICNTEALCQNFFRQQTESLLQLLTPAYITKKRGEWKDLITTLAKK

[15] = target: T6, Sentrin-specific protease 8; format: functional; remark: listed apart in the source
[16] = target: T7, Leucine aminopeptidase (Plasmodium falciparum 3D7, UniProt Q8IL11); experiment: P. falciparum M17LAP inhibitors, primary screen, biochemical, fluorogenic H-Leu-NHMec substrate, 1536-well (AID 1619); format: functional
T7 sequence (Q8IL11 whole entry): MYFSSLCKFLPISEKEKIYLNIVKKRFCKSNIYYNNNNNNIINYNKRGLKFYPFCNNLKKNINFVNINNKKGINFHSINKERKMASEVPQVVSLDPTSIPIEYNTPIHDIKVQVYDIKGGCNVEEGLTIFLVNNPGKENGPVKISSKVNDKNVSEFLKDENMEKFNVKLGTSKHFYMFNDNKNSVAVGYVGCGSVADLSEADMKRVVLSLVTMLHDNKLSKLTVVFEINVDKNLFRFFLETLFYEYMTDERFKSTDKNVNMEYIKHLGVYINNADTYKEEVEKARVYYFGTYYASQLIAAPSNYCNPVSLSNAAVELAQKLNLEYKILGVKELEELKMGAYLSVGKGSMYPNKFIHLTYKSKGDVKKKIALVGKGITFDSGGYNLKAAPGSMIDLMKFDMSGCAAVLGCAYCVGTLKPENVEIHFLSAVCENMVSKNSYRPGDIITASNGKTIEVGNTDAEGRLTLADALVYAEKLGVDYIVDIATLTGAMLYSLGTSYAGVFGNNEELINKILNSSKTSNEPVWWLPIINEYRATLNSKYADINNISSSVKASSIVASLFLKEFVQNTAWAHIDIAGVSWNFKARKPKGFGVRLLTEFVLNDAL

[17] = target: DNA dC->dU-editing enzyme APOBEC-3A (Homo sapiens, UniProt P31941); experiment: APOBEC3A DNA deaminase inhibitors, dose response, biochemical (AID 504722); format: functional
[18] = target: DNA dC->dU-editing enzyme APOBEC-3G (Homo sapiens, UniProt Q9HC16); experiment: Dose Response confirmation of small molecule APOBEC3G DNA Deaminase Inhibitors via a fluorescence-based single-stranded DNA deaminase assay. [Related pubchem assays (depositor defined):AID493012, AID493028]; format: functional

Estrogen receptor, sequence (P03372 whole entry): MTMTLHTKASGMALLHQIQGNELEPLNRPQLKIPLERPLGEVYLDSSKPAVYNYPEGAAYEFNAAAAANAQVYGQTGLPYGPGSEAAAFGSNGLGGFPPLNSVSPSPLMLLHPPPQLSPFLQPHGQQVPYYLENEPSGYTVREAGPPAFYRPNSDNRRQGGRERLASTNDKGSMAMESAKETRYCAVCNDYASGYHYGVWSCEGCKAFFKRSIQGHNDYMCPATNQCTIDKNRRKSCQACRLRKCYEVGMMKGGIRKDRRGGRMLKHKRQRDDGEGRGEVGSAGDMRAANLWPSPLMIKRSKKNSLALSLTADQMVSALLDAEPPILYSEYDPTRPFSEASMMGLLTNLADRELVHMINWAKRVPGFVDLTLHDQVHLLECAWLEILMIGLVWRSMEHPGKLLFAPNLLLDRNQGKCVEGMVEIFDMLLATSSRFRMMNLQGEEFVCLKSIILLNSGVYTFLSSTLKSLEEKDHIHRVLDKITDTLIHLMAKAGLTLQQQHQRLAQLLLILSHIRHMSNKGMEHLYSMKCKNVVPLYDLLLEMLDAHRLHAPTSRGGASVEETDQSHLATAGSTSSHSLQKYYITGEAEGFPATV
Peroxisome proliferator-activated receptor gamma/Nuclear receptor coactivator 3, sequence (P37231 whole entry): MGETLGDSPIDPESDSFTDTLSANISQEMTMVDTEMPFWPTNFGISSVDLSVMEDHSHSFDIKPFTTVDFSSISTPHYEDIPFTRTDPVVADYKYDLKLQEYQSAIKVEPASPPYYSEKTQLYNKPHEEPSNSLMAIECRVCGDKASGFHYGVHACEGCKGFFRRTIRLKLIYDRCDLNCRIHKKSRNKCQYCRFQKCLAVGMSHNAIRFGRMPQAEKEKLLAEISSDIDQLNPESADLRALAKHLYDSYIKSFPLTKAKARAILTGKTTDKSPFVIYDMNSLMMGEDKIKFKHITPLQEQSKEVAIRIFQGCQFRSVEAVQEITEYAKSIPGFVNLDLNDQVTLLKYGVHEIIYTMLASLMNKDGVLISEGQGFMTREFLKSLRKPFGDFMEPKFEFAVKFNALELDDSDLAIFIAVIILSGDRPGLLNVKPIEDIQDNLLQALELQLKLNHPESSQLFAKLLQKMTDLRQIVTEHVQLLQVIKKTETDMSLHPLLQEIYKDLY
Peroxisome proliferator-activated receptor gamma/Nuclear receptor coactivator 3, sequence (Q9Y6Q9 whole entry, further chain): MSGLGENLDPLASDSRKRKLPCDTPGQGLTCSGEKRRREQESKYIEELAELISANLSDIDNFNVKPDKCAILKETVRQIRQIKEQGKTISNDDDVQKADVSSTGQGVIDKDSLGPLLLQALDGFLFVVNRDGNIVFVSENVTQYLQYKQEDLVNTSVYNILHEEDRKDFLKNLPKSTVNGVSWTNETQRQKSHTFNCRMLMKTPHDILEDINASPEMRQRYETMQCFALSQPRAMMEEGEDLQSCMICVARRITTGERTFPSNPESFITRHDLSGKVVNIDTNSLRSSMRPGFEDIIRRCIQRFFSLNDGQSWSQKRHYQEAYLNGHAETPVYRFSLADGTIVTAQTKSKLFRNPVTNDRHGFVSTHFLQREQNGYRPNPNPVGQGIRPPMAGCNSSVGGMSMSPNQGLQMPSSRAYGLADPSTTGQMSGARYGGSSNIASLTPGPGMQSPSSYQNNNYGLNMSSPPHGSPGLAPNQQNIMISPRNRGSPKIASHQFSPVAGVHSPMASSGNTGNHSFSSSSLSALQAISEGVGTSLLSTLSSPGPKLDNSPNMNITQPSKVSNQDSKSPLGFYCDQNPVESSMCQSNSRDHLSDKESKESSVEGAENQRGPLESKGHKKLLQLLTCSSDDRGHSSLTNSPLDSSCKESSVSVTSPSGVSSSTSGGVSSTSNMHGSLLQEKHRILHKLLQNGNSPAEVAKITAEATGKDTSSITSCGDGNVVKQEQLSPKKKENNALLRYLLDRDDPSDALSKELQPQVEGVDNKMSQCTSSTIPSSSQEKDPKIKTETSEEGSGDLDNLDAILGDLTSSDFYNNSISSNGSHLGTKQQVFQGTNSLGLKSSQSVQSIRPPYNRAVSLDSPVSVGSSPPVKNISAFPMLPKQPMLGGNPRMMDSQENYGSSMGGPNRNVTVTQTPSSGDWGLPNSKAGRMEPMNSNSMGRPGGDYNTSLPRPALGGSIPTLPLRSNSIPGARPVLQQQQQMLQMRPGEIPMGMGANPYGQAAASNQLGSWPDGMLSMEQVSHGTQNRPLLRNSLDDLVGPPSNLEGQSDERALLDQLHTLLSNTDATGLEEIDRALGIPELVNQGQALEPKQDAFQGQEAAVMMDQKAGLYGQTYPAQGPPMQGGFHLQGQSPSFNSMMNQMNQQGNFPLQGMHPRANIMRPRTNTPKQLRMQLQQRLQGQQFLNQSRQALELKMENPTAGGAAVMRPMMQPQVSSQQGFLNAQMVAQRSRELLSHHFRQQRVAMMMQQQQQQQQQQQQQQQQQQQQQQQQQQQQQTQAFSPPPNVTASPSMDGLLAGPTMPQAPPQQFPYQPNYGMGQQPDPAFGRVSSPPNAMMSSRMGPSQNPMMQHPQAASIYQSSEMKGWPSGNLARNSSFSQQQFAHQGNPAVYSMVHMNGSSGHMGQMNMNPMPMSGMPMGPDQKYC
Peroxisome proliferator-activated receptor gamma/Nuclear receptor coactivator 2, sequence (P37231 whole entry): as the sequence (P37231 whole entry) above
Peroxisome proliferator-activated receptor gamma/Nuclear receptor coactivator 2, sequence (Q15596 whole entry, further chain): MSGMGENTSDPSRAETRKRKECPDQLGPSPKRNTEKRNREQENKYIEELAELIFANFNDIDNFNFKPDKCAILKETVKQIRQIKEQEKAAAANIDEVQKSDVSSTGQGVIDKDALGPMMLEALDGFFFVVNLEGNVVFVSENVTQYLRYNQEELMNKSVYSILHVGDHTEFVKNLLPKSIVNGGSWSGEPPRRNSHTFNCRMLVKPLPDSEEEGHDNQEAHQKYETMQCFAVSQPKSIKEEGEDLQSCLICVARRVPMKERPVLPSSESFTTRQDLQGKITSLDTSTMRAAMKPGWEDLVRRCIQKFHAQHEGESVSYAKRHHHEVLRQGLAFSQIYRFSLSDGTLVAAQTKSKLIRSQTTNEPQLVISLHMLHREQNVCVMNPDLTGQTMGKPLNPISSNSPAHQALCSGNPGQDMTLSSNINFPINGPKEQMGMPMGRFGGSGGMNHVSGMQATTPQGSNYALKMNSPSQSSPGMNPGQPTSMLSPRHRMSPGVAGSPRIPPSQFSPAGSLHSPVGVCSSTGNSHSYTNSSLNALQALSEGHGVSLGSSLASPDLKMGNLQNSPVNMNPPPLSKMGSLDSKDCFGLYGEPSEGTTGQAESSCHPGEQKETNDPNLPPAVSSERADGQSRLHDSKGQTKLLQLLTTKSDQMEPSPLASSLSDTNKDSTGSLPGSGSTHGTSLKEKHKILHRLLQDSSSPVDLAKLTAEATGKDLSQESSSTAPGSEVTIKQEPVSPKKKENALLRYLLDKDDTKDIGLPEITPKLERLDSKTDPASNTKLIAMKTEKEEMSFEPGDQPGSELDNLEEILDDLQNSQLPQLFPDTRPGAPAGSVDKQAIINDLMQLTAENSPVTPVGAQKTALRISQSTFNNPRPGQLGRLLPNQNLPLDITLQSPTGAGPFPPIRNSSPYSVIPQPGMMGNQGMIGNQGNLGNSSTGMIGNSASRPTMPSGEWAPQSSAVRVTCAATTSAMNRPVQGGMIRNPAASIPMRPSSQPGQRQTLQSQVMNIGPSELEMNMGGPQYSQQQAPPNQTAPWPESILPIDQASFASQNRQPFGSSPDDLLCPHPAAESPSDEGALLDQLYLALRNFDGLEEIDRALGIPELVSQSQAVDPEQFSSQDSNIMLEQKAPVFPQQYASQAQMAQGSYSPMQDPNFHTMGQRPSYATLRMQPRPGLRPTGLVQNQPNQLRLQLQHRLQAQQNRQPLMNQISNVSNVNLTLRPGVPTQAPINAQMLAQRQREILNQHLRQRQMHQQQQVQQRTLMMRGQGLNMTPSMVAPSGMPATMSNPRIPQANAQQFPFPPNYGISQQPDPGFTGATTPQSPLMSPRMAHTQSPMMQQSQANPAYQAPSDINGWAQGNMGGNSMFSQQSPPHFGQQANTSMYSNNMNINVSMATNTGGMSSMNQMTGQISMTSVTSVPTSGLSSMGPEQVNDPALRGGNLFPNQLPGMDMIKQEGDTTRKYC
Tyrosine-protein phosphatase non-receptor type 7, sequence (P35236 whole entry): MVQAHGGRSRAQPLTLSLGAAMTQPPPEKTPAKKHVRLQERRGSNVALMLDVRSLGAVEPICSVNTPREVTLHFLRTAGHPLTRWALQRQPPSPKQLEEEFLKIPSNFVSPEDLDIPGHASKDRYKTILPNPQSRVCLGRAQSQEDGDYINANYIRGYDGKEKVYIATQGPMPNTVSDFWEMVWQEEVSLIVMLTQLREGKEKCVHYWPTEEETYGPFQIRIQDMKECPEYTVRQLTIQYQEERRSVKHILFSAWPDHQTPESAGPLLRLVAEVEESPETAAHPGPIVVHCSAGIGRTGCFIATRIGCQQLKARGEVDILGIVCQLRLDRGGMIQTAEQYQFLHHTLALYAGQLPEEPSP
DNA dC->dU-editing enzyme APOBEC-3A, sequence (P31941 whole entry): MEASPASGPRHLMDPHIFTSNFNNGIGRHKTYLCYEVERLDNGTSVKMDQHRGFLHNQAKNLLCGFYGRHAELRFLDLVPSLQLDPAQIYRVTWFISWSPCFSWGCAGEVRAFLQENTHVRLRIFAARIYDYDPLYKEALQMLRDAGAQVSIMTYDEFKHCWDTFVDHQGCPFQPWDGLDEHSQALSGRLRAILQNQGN

With `Cc1cc(NC(=O)CCc2ccc(C)o2)no1` the IC50 [1] was > 100 µM (inactive), the IC50 [2] was > 100 µM (inactive) and the IC50 [3] was > 100 µM (not active). For the same compound, the IC50 [4] was > 100 µM (inactive) and the IC50 [5] was > 100 µM (not active).

`CCOC(=O)C1=C(C)N=C(SCC(=O)O)NC1c1ccccc1` (stereo unspecified) was tested, and the EC50 [6] was > 79.4 µM (not active), the EC50 [7] was > 79.4 µM (not active) and the EC50 [8] was > 79.4 µM (not active).

In the case of `O=C(Nc1cnc2ccccc2c1)c1ccco1`, the IC50 [9] is reported as > 50 µM (not active).

In the case of `O=c1cc(-c2ccc(Cl)cc2)[nH][nH]1`, the EC50 [10] is reported as 0.527 µM (active), the IC50 [11] is reported as > 59.6 µM (not active) and the AC50 [12] is reported as 2.33 µM (active). The IC50 [13] was > 73.5 µM (not active), the IC50 [14] was 57 µM (active) and the IC50 [15] was 67.7 µM (inactive). The IC50 [16] was < 1 µM (active).

For `COc1ccc(-c2cc(C(F)(F)F)n3ncc(C(=O)NCc4ccco4)c3n2)cc1`, the IC50 [9] was > 50 µM (not active).

In the case of `O=C(O)[C@H](O)c1ccccc1`, the IC50 [1] is reported as > 100 µM (inactive), the IC50 [2] is reported as > 100 µM (inactive) and the IC50 [3] is reported as > 100 µM (not active). For the same compound, the IC50 [5] was > 100 µM (not active).

`Sc1nc2cc(Cl)ccc2[nH]1` was tested, and the IC50 [17] was > 100 µM (inactive), the EC50 [6] was > 79.4 µM (not active) and the IC50 [18] was 5.27 µM (active). The EC50 [7] was > 79.4 µM (not active) and the EC50 [8] was > 79.4 µM (not active).
